Measured values published in patent publication US6800590B2, “2-Pyrimidinyloxy-n-aryl-benzylamine derivatives,their processes and uses” (Shanghai Institute of Organic Chemistry, priority 2003, dated 2004).

Experiments:
[1] = system: transplanted paddy seedlings; test: Paddy safety, treatment on stem and leaves of transplanted paddy seedlings; assay type: in vivo; details: 150 g ai/ha, spray on stem and leaves of transplanted paddy seedlings at 4-5-leaves stage
Method: The 5-grade evaluation criteria by visual examination for weeding activity and crop safety (i.e. phytotoxicity) are listed in Table 2.
In pots (diameter of 12 cm) containing test soil, paddy seedlings of the given stage are transplanted and grown in the greenhouse at 20-30° C. After growing to 4-5-leaves stage, the spraying treatment on the stem and leaves of paddy seedlings is conducted in a dosage of 150 g ai/ha after diluting the formulation obtained according to Formulating Example 5 into a given concentration. The visual injury and growth state of the individual plants are observed in regular intervals. The evaluation for the crop safety of the compounds is conducted by 5-grade visual observation.

Row | Compound | Effect on tillering [1] | Stunting [1] | melting point [°C]
1 | COc1cc(OC)nc(Oc2ccccc2CNc2ccc(NC(=O)C(C)C)cc2)n1 [Compound I-101] | None | <10% | 
2 | COc1cc(OC)nc(Oc2ccccc2CNc2ccc(NC(=O)c3ccccc3)cc2)n1 [Compound I-102] | None | 10-15% | 
3 | COc1cc(OC)nc(Oc2ccccc2CNc2ccc(C(=O)NC(C)C)cc2)n1 [Compound I-79, i-propyl 4-[2-(4,6-dimethoxy-2-pyrimidinyloxy)-benzylamino]benzamide] |  |  | 83 to 84
4 | COc1cc(OC)nc(Oc2ccccc2CNc2ccc(NC(=O)C(F)(F)F)cc2)n1 [Compound I-103] | None | 20-25% | 
5 | CCCNC(=O)c1ccc(NCc2ccccc2Oc2nc(OC)cc(OC)n2)cc1 [Compound I-78, n-propyl 4-[2-(4,6-dimethoxy-2-pyrimidinyloxy)-benzylamino]-benzamide] |  |  | 96 to 97
